Results reported in patent US8252781B2, “1,2-diazetidin-3-one derivatives and drugs containing same” (Kowa Company, Ltd., priority 2008, dated 2012).
Like-named read-outs stand apart in the source and are kept apart here.

How the values were obtained:
[1] = molecular target: T1, human 11β-HSD1 (Homo sapiens, UniProt P28845); test: Enzyme inhibitory activity, human 11β-HSD1 (lysate of stably expressing HEK293 cells, cortisol by competitive ELISA); format: biochemical; conditions: human 11β-HSD1, cell lysate, 37° C. for 1 hour, read-out: h HSD1 in vitro assay (IC50 uM)
T1 construct: The obtained PCR products of about 0.9 kbp, 1.2 kbp, and 0.9 kbp were subcloned into an expression vector pcDNA3.1+/Zeo; expressed in transfected cells
Outline: (§1)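 Sonicated lysates of stably transfected cells (diluted to 0.1–0.4 mg/mL before addition) reacted for 1 h at 37 °C in pH 7.4 Tris/sucrose/EGTA/EDTA/MgCl2 buffer with 100 nmol/L cortisone or cortisol and 400 μmol/L NADPH or NAD+, then were heat-stopped at 95 °C. Inhibition rate = 100 minus residual activity.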

[2] = molecular target: T2, mouse 11β-HSD1 (Mus musculus, UniProt P50172); test: Enzyme inhibitory activity, mouse 11β-HSD1 (lysate of stably expressing CHO-K1 cells, cortisol by competitive ELISA); format: biochemical; conditions: Table 2; mouse 11β-HSD1, cell lysate, 37° C. for 1 hour; read-out: m HSD1 in vitro assay (IC50 uM)
T2 construct: The obtained PCR products of about 0.9 kbp, 1.2 kbp, and 0.9 kbp were subcloned into an expression vector pcDNA3.1+/Zeo; expressed in transfected cells
Outline: as §1

T1 sequence (P28845 whole entry): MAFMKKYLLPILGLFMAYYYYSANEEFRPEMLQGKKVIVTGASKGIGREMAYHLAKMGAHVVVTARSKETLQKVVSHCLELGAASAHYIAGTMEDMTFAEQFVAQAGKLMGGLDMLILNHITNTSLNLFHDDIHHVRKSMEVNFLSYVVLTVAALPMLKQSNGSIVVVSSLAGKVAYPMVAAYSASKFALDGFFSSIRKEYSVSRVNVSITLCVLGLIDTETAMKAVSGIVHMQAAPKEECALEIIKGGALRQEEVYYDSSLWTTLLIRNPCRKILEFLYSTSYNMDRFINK
T2 sequence (P50172 whole entry): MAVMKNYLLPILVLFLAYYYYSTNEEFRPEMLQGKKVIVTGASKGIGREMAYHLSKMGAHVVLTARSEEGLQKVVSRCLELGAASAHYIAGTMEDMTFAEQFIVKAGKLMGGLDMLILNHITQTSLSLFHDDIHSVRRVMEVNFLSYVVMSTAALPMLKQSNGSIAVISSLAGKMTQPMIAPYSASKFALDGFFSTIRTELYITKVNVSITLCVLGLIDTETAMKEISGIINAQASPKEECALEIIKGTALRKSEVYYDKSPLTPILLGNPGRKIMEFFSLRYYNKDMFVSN

With `Cc1ccc(C(=O)N2N(C3C4CC5CC(C4)CC3C5)C(=O)C2(C)C)c(C)c1` (stereo not drawn) [Example 160, 1-[(2,4-dimethylphenyl)carbonyl]-4,4-dimethyl-2-(adamantan-2-yl)-1,2-diazetidin-3-one] the IC50 ([1]; Table 1) was 0.52 µM and the IC50 [2] was 0.16 µM.
Work on `CC1(C)C(=O)N(C2C3CC4CC(C3)CC2C4)N1c1ccc(N)cc1` (stereo not drawn) [Example 183, 1-(4-aminophenyl)-4,4-dimethyl-2-(adamantan-2-yl)-1,2-diazetidin-3-one] yielded an IC50 ([1]; Table 2) of 0.057 µM and an IC50 [2] of 0.76 µM.
Work on `Cc1ccccc1N1N(C2C3CC4CC(C3)CC2C4)C(=O)C1(C)C` (stereo not drawn) [Example 192, 4,4-dimethyl-1-(2-methylphenyl)-2-(adamantan-2-yl)-1,2-diazetidin-3-one] yielded an IC50 ([1]; Table 2) of 0.49 µM and an IC50 [2] of 0.03 µM.
`Cc1cccc(N2N(C3C4CC5CC(C4)CC3C5)C(=O)C2(C)C)c1` (stereo not drawn) [Example 193, 4,4-dimethyl-1-(3-methylphenyl)-2-(adamantan-2-yl)-1,2-diazetidin-3-one] showed an IC50 ([1]; Table 2) of 0.86 µM and an IC50 [2] of 0.36 µM.
In the case of `COc1cccc(N2N(C3C4CC5CC(C4)CC3C5)C(=O)C2(C)C)c1` (stereo not drawn) [Example 204, 1-(3-methoxyphenyl)-4,4-dimethyl-2-(adamantan-2-yl)-1,2-diazetidin-3-one], the IC50 ([1]; Table 1) is reported as 0.16 µM and the IC50 [2] is reported as 0.42 µM.
For `COc1ccccc1N1N(C2C3CC4CC(C3)CC2C4)C(=O)C1(C)C` (stereo not drawn) [Example 205, 1-(2-methoxyphenyl)-4,4-dimethyl-2-(adamantan-2-yl)-1,2-diazetidin-3-one], the IC50 ([1]; Table 1) was 0.1 µM and the IC50 [2] was 0.2 µM.
For `Cc1cccc(N2N(C3C4CC5CC(C4)CC3C5)C(=O)C2(C)C)c1C` (stereo not drawn) [Example 207, 1-(2,3-dimethylphenyl)-4,4-dimethyl-2-(adamantan-2-yl)-1,2-diazetidin-3-one], the IC50 ([1]; Table 2) was 0.61 µM and the IC50 [2] was 0.054 µM.
`CC1(C)C(=O)N(C2C3CC4CC(C3)CC2C4)N1c1csc2ccccc12` (stereo not drawn) [Example 210, 1-(1-benzothiophen-3-yl)-4,4-dimethyl-2-(adamantan-2-yl)-1,2-diazetidin-3-one] was tested, and the IC50 ([1]; Table 2) was 0.44 µM and the IC50 [2] was 0.16 µM.
`CC1(C)C(=O)N(C2C3CC4CC(C3)CC2C4)N1c1ccccc1O` (stereo not drawn) [Example 219, 1-(2-hydroxyphenyl)-4,4-dimethyl-2-(adamantan-2-yl)-1,2-diazetidin-3-one] was tested, and the IC50 ([1]; Table 2) was 0.56 µM and the IC50 [2] was 0.23 µM.
In the case of `COc1ccccc1N1N(C2CCCCCCC2)C(=O)C1(C)C` [Example 220, 2-cyclooctyl-1-(2-methoxyphenyl)-4,4-dimethyl-1,2-diazetidin-3-one], the IC50 ([1]; Table 1) is reported as 0.056 µM and the IC50 [2] is reported as 0.088 µM.
`CC1(C)C(=O)N(C2CC3CCC2C3)N1c1cccc(Cl)c1Cl` (stereo not drawn) [Example 224, 2-(bicyclo[2.2.1]heptan-2-yl)-1-(2,3-dichlorophenyl)-4,4-dimethyl-1,2-diazetidin-3-one] showed an IC50 ([1]; Table 1) of 0.044 µM and an IC50 [2] of 0.34 µM.
`CC1(C)C(=O)N(C2CC3CCC2C3)N1c1cccc2ccccc12` (stereo not drawn) [Example 225, 2-(bicyclo[2.2.1]heptan-2-yl)-4,4-dimethyl-1-(naphthalen-1-yl)-1,2-diazetidin-3-one] showed an IC50 ([1]; Table 1) of 0.036 µM and an IC50 [2] of 0.012 µM.
For `CC1(C)C(=O)N([C@H]2C3CC4CC2C[C@](O)(C4)C3)N1c1ccccc1O` [Example 233, trans-1-(2-hydroxyphenyl)-2-(5-hydroxyadamantan-2-yl)-4,4-dimethyl-1,2-diazetidin-3-one], the IC50 ([1]; Table 2) was 0.18 µM and the IC50 [2] was 0.27 µM.
For `CC1(C)C(=O)N([C@H]2C3CC4CC2C[C@](O)(C4)C3)N1c1ccc(N)cc1` [Example 235, trans-1-(4-aminophenyl)-2-(5-hydroxyadamantan-2-yl)-4,4-dimethyl-1,2-diazetidin-3-one], the IC50 ([1]; Table 2) was 0.056 µM and the IC50 [2] was 0.75 µM.
Molecule `CC1(C)C(=O)N([C@H]2C3CC4CC2C[C@](O)(C4)C3)N1c1cccc2ccccc12` [Example 236, trans-2-(5-hydroxyadamantan-2-yl)-4,4-dimethyl-1-(naphthalen-1-yl)-1,2-diazetidin-3-one] has an IC50 ([1]; Table 1) of 0.095 µM and an IC50 [2] of 0.31 µM.
`CC1(C)C(=O)N([C@H]2C3CC4CC2C[C@](O)(C4)C3)N1c1ccc(F)c2ccccc12` [Example 238, trans-1-(4-fluoronaphthalen-1-yl)-2-(5-hydroxyadamantan-2-yl)-4,4-dimethyl-1,2-diazetidin-3-one] showed an IC50 ([1]; Table 1) of 0.02 µM and an IC50 [2] of 0.38 µM.
`CC1(C)C(=O)N([C@H]2C3CC4CC2C[C@@](O)(C4)C3)N1c1cccc2ccccc12` [Example 247, cis-2-(5-hydroxyadamantan-2-yl)-4,4-dimethyl-1-(naphthalen-1-yl)-1,2-diazetidin-3-one] showed an IC50 ([1]; Table 1) of 0.027 µM and an IC50 [2] of 0.26 µM.
`CC1(C)C(=O)N([C@H]2C3CC4CC2C[C@@](O)(C4)C3)N1c1ccc(F)c2ccccc12` [Example 249, cis-1-(4-fluoronaphthalen-1-yl)-2-(5-hydroxyadamantan-2-yl)-4,4-dimethyl-1,2-diazetidin-3-one] gave an IC50 ([1]; Table 1) of 0.013 µM and an IC50 [2] of 0.78 µM.
`COCOc1ccccc1N1N([C@H]2C3CC4CC2C[C@](Cl)(C4)C3)C(=O)C1(C)C` [Example 252, trans-2-(5-chloroadamantan-2-yl)-1-[2-(methoxymethoxy)phenyl]-4,4-dimethyl-1,2-diazetidin-3-one] showed an IC50 ([1]; Table 1) of 0.034 µM and an IC50 [2] of 0.24 µM.
`CC1(C)C(=O)N([C@H]2C3CC4CC2C[C@](Cl)(C4)C3)N1c1cccc2ccccc12` [Example 254, trans-2-(5-chloroadamantan-2-yl)-4,4-dimethyl-1-(naphthalen-1-yl)-1,2-diazetidin-3-one] gave an IC50 ([1]; Table 1) of 0.012 µM and an IC50 [2] of 0.075 µM.
Work on `CC1(C)C(=O)N([C@H]2C3CC4CC2C[C@](Cl)(C4)C3)N1c1ccc(F)c2ccccc12` [Example 255, trans-2-(5-chloroadamantan-2-yl)-1-(4-fluoronaphthalen-1-yl)-4,4-dimethyl-1,2-diazetidin-3-one] yielded an IC50 ([1]; Table 1) of 0.003 µM and an IC50 [2] of 0.18 µM.
In the case of `CC1(C)C(=O)N([C@H]2C3CC4CC2C[C@@](Cl)(C4)C3)N1c1cccc2ccccc12` [Example 257, cis-2-(5-chloroadamantan-2-yl)-4,4-dimethyl-1-(naphthalen-1-yl)-1,2-diazetidin-3-one], the IC50 ([1]; Table 1) is reported as 0.24 µM and the IC50 [2] is reported as 0.24 µM.
For `CC1(C)C(=O)N(C2C3CC4CC(C3)CC2C4)N1CCCc1ccccc1` (stereo not drawn) [Example 261, 4,4-dimethyl-1-(3-phenylpropyl)-2-(adamantan-2-yl)-1,2-diazetidin-3-one], the IC50 ([1]; Table 2) was 0.45 µM and the IC50 [2] was 0.7 µM.
In the case of `CC1(C)C(=O)N(C2C3CC4CC(C3)CC2C4)N1CCc1ccccc1` (stereo not drawn) [Example 266, 4,4-dimethyl-1-(2-phenylethyl)-2-(adamantan-2-yl)-1,2-diazetidin-3-one], the IC50 ([1]; Table 2) is reported as 0.55 µM and the IC50 [2] is reported as 0.47 µM.
`CC1(C)C(=O)N(C2C3CC4CC2CC(C(N)=O)(C4)C3)N1c1cccc2ccccc12` (stereo not drawn) [Example 273, cis-4-[2-(naphthalen-1-yl)-3,3-dimethyl-4-oxo-1,2-diazetidin-1-yl]adamantane-1-carboxamide] showed an IC50 ([1]; Table 1) of 0.02 µM, an IC50 ([1]; Table 2) of 0.02 µM and an IC50 [2] of 0.1 µM.
Work on `CC1(C)C(=O)N([C@H]2C3CC4CC2C[C@](C(=O)O)(C4)C3)N1c1cccc2ccccc12` [Example 274, trans-4-[2-(naphthalen-1-yl)-3,3-dimethyl-4-oxo-1,2-diazetidin-1-yl]adamantane-1-carboxylic acid] yielded an IC50 ([1]; Table 1) of 0.011 µM and an IC50 [2] of 0.25 µM.
Molecule `CC1(C)C(=O)N([C@H]2C3CC4CC2C[C@](C(N)=O)(C4)C3)N1c1cccc2ccccc12` [Example 275, trans-4-[2-(naphthalen-1-yl)-3,3-dimethyl-4-oxo-1,2-diazetidin-1-yl]adamantane-1-carboxamide] has an IC50 ([1]; Table 1) of 0.011 µM and an IC50 [2] of 0.25 µM.
For `CC1(C)C(=O)N(C2C3CC4CC2CC(C(N)=O)(C4)C3)N1c1cccc(Cl)c1Cl` (stereo not drawn) [Example 276, cis-4-[2-(2,3-dichlorophenyl)-3,3-dimethyl-4-oxo-1,2-diazetidin-1-yl]adamantane-1-carboxamide], the IC50 ([1]; Table 1) was 0.007 µM, the IC50 ([1]; Table 2) was 0.007 µM and the IC50 [2] was 0.4 µM.
Work on `CC1(C)C(=O)N([C@H]2C3CC4CC2C[C@](C(N)=O)(C4)C3)N1c1cccc(Cl)c1Cl` [Example 277, trans-4-[2-(2,3-dichlorophenyl)-3,3-dimethyl-4-oxo-1,2-diazetidin-1-yl]adamantane-1-carboxamide] yielded an IC50 ([1]; Table 1) of 0.007 µM and an IC50 [2] of 0.4 µM.
